According to US11406714B2, “Telodendrimers and nanocarriers and methods of using same” (The Research Foundation for the State University of New York, priority 2013, dated 2022):
Entries after “also recorded” stand apart in the source; their conditions may differ.

How the values were obtained:
[1] = Maximum tolerated dose (MTD) study; assay type: in vivo
Experimental: FIG. 24. An example of body weight lost for an animal treated with DOX loaded PEG^5kCA4-L-Rh4 at different dosage level, as well as the empty micelles for the test of the MTD studies. Among, the 15 mg/Kg dosage was repeated at day 0 and day 4 to study the MTD of multiple dosages.

Raji lymphoma xenograft [2] = test: In vivo cancer treatment; set-up: species or system nude mice; details: 10 mg/kg, days 0, 4 and 8, intravenous
Experimental: (§1) Female athymic nude mice (Nu/Nu strain), 6-8 weeks age, were purchased from Harlan. All animals were kept under pathogen-free conditions according to AAALAC (Association for Assessment and Accreditation of Laboratory Animal Care) guidelines and were allowed to acclimatize for at least 4 days prior to any experiments. All animal experiments were performed in compliance with institutional guidelines and according to protocol approved by the Committee for the Humane Use of Animals of State University of New York Upstate Medical University. Subcutaneous tumor xenograft mouse models were established by injecting 1×10^7 HT-29 or raji cancer cells in a 100 μL of mixture of PBS and Matrigel (1:1 v/v) subcutaneously at the right flank in female nude mice.
Subcutaneous Raji lymphoma xenograft mouse model was used to evaluate the therapeutic efficacy of different formulations of DOX. […] Tumor sizes were measured with a digital caliper twice per week. Tumor volume was calculated by the formula (L×W^2)/2, where L is the longest, and W is the shortest in tumor diameters (mm). To compare between groups, relative tumor volume (RTV) was calculated at each measurement time point (where RTV equals the tumor volume at given time point divided by the tumor volume prior to initial treatment). […]

Raji lymphoma xenograft [3] = test: In vivo and ex vivo NIRF imaging and biodistribution; set-up: species or system nude mice; details: tail vein injection
Experimental: as §1
(§2) Nude mice with subcutaneous tumors of an approximate 8 to 10 mm in diameter were subjected to in vivo NIRF optical imaging. At different time points post-injection of DiD and chemodrug (PTX or DOX or GA) co-loaded micelles (the mass ratio of DiD and PTX within nanocarrier was […]), mice were scanned using a IVIS-200 small animal imager at cy5.5 excitation and emission channels. The mice were anaesthetized by isofluorane gas before and during each imaging. After in vivo imaging, animals were euthanized by CO2 overdose after the last in vivo imaging. Tumors and major organs were excised and imaged with the IVIS-200 small animal imager.

[4] = tested on: HT-29 colon cancer xenografts; test: as above; set-up: species or system nude mice
Experimental: as §1, §2

SMILES | MTD of free DOX [1] | Tumor response (Raji lymphoma xenograft [2]) | Biodistribution of fluorescence signal (Raji lymphoma xenograft [3]) | Ex vivo biodistribution of fluorescence signal ([4]; after last in vivo imaging) | In vivo tumor targeting (fluorescence imaging) ([4]; tail vein injection, DiD signal)
COc1cccc2c1C(=O)c1c(O)c3c(c(O)c1C2=O)C[C@@](O)(C(=O)CO)C[C@@H]3O[C@H]1C[C@H](N)[C@H](O)[C@H](C)O1 [DOX, Doxorubicin] | 10 mg/kg | the cancer progression was slowed down | – | – | –
CCCCCCCCCCCCCCCCCCN1C(=CC=CC=CC2=[N+](CCCCCCCCCCCCCCCCCC)c3ccccc3C2(C)C)C(C)(C)c2ccccc21.[O-][Cl+3]([O-])([O-])[O-] [DiD, 1,1′-dioctadecyl-3,3,3′,3′-tetramethylindodicarbocyanine perchlorate] | – | – | high fluorescent uptake in the liver, lung and spleen and weak signal in the tumor | high uptake in liver, lung and spleen and low uptake in tumor; also recorded: high uptake of fluorescent signal in spleen and lung | nonspecific binding and low tumor uptake
